Holding throughout (assay type): in vivo
What all share (conditions): 100 = 100% disease control, 0 = no disease control relative to controls

The test system of one assay is Septoria tritici. In words: Test C: wheat leaf blotch, preventive spray on wheat seedlings, visual disease rating. An excerpt: General protocol for preparing test suspensions for Tests A-F: […] The resulting test suspensions were then used in Tests A-F. The test suspensions were sprayed to the point of run-off on the test plants. All results are for 200 ppm (equivalent to a rate of 500 g/ha) except where followed by “*” which indicates 40 ppm. The test suspension was sprayed to the point of run-off on wheat seedlings. The following day the seedlings were inoculated with a spore suspension of Septoria tritici (the causal agent of wheat leaf blotch) and incubated in saturated atmosphere at 20° C. for 48 h, and moved to a growth chamber at 20° C. for 19 additional days, after which time visual disease ratings were made. […] A dash (-) indicates no test results. All results are for 200 ppm except where followed by “*”, which indicates 40 ppm.

Another assay deals with Botrytis cinerea. In words: Test F: tomato Botrytis, preventive spray on tomato seedlings, visual disease rating. An excerpt:
General protocol for preparing test suspensions for Tests A-F: […] The resulting test suspensions were then used in Tests A-F. The test suspensions were sprayed to the point of run-off on the test plants. All results are for 200 ppm (equivalent to a rate of 500 g/ha) except where followed by “*” which indicates 40 ppm. The test suspension was sprayed to the point of run-off on tomato seedlings. The following day the seedlings were inoculated with a spore suspension of Botrytis cinerea (the causal agent of tomato Botrytis) and incubated in saturated atmosphere at 20° C. for 48 h, and then moved to a growth chamber at 24° C. for 3 days, after which time visual disease ratings were made. […] A dash (-) indicates no test results. All results are for 200 ppm except where followed by “*”, which indicates 40 ppm.

Assay [1] has as its system Puccinia recondita f. sp. tritici. In words: Test B: wheat leaf rust, preventive spray on wheat seedlings, visual disease rating. An excerpt: General protocol for preparing test suspensions for Tests A-F: […] The resulting test suspensions were then used in Tests A-F. The test suspensions were sprayed to the point of run-off on the test plants. All results are for 200 ppm (equivalent to a rate of 500 g/ha) except where followed by “*” which indicates 40 ppm. The test suspension was sprayed to the point of run-off on wheat seedlings. The following day the seedlings were inoculated with a spore suspension of Puccinia recondita f. sp. tritici (the causal agent of wheat leaf rust) and incubated in a saturated atmosphere at 20° C. for 24 h, and then moved to a growth chamber at 20° C. for 7 days, after which time visual disease ratings were made. […] A dash (-) indicates no test results. All results are for 200 ppm except where followed by “*”, which indicates 40 ppm.

A further assay has as its system Alternaria solani. Put plainly: Test E: tomato early blight, preventive spray on tomato seedlings, visual disease rating. The text has this: General protocol for preparing test suspensions for Tests A-F: […] The resulting test suspensions were then used in Tests A-F. The test suspensions were sprayed to the point of run-off on the test plants. All results are for 200 ppm (equivalent to a rate of 500 g/ha) except where followed by “*” which indicates 40 ppm. The test suspension was sprayed to the point of run-off on tomato seedlings. […] A dash (-) indicates no test results. All results are for 200 ppm except where followed by “*”, which indicates 40 ppm.

The next assay has as its system Septoria nodorum. In words: Test D: wheat glume blotch, preventive spray on wheat seedlings, visual disease rating. The text has this: General protocol for preparing test suspensions for Tests A-F: […] The resulting test suspensions were then used in Tests A-F. The test suspensions were sprayed to the point of run-off on the test plants. All results are for 200 ppm (equivalent to a rate of 500 g/ha) except where followed by “*” which indicates 40 ppm. The test suspension was sprayed to the point of run-off on wheat seedlings. The following day the seedlings were inoculated with a spore suspension of Septoria nodorum (the causal agent of wheat glume blotch) and incubated in a saturated atmosphere at 20° C. for 48 h, and then moved to a growth chamber at 20° C. for 7 days, after which time visual disease ratings were made. […] A dash (-) indicates no test results. All results are for 200 ppm except where followed by “*”, which indicates 40 ppm.

The next assay concerns Erysiphe graminis. Put plainly: Test A: wheat powdery mildew, preventive spray on wheat seedlings, visual disease rating. The text has this: General protocol for preparing test suspensions for Tests A-F: […] The resulting test suspensions were then used in Tests A-F. The test suspensions were sprayed to the point of run-off on the test plants. All results are for 200 ppm (equivalent to a rate of 500 g/ha) except where followed by “*” which indicates 40 ppm. The test suspension was sprayed to the point of run-off on wheat seedlings. The following day the seedlings were inoculated with a spore dust of Erysiphe graminis, (the causal agent of wheat powdery mildew) and incubated in a growth chamber at 20° C. for 8 days, after which time visual disease ratings were made. […] A dash (-) indicates no test results. All results are for 200 ppm except where followed by “*”, which indicates 40 ppm.

[2] abbreviates: Zymoseptoria tritici, 504 h, 200 ppm.
[3] abbreviates: Parastagonospora nodorum, 200 ppm.
The mark [4] stands for this setting: Blumeria graminis, 192 h, 200 ppm.

Experimental findings from US20110136762A1, “FUNGICIDAL PYRIDAZINES” (E.I. Du Pont de Nemours and Company, priority 2008, published 2011) are described below.

Marks after values point to notes of the source that are not given here.

Consider `COc1cc(OC)cc(-c2c(-c3ccccc3)nnc(Cl)c2-c2c(F)cc(F)cc2F)c1` [Compound 34], for which the “Test C rating (disease control, wheat leaf blotch)” value (“Test C rating” for short) in the assay with Septoria tritici (200 ppm) is 100%. In the assay on Botrytis cinerea (200 ppm), the “Test F rating (disease control, tomato Botrytis)” value (“Test F rating” below) is 100%. The “Test B rating (disease control, wheat leaf rust)” value (shortened to “Test B rating”) in assay [1] (200 ppm) amounted to 100%. In addition, in the assay on Alternaria solani (200 ppm), the “Test E rating (disease control, tomato early blight)” value (“Test E rating” for short) is given as 99%. Moreover, the “Test D rating (disease control, wheat glume blotch)” value (“Test D rating” below) with Septoria nodorum (200 ppm) is 93%. Besides, the “Test A rating (disease control, wheat powdery mildew)” value (shortened to “Test A rating”) in the assay on Erysiphe graminis (200 ppm) is on record as 99%.

By pest or weed control is commonly meant the degree to which the test organism was suppressed or injured, in per cent. A low value points to a weak effect. For the compound `COc1cc(OC)cc(-c2c(-c3ccccc3F)nnc(C)c2-c2c(F)cc(OC)cc2F)c1` [Compound 28, 4-(2,6-difluoro-4-methoxyphenyl)-5-(3,5-dimethoxyphenyl)-6-(2-fluorophenyl)-3-methylpyridazine], the pest or weed control at 40 ppm in the assay on Septoria tritici (Zymoseptoria tritici, 504 h, 40 ppm (marked *)) stood at 97%; with Botrytis cinerea (Botrytis cinerea, 40 ppm (marked *)) it was 100%; in assay [1] (192 h, 40 ppm (marked *)), 100%; in the assay on Alternaria solani (Alternaria solani, 40 ppm (marked *)), 100%; with Septoria nodorum (Parastagonospora nodorum, 40 ppm (marked *)), 100%; in the assay on Erysiphe graminis (Blumeria graminis, 192 h, 40 ppm (marked *)), 85%.

Regarding `Cc1nnc(-c2ccccc2F)c(-c2cccc(F)c2)c1-c1c(F)cc(F)cc1F` [Compound 25, 3-(2-fluorophenyl)-4-(3-fluorophenyl)-6-methyl-5-(2,4,6-trifluorophenyl)pyridazine], the pest or weed control at 200 ppm in the assay with Septoria tritici (setting [2]) was found to be 96%; in the assay on Botrytis cinerea (Botrytis cinerea, 200 ppm), 98%; in assay [1] (192 h, 200 ppm), 100%; with Alternaria solani (Alternaria solani, 200 ppm) it was 100%; in the assay on Septoria nodorum (setting [3]) it was 100%; in the assay with Erysiphe graminis (setting [4]) it was 99%.

As for `COc1cc(OC)cc(-c2c(-c3ccc(F)cc3F)nnc(C)c2-c2ccccc2)c1` [Compound 5], the “Test C rating” value with Septoria tritici (200 ppm) is on record as 94%. In addition, the “Test F rating” value in the assay on Botrytis cinerea (200 ppm) was found to be 82%. The “Test B rating” value in assay [1] (200 ppm) was found to be 86%. The “Test E rating” value in the assay on Alternaria solani (200 ppm) came to 0%. Also, in the assay with Septoria nodorum (200 ppm), the “Test D rating” value stood at 0%. Moreover, the “Test A rating” value in the assay with Erysiphe graminis (200 ppm) is 91%.

Regarding `COc1cc(OC)cc(-c2c(-c3ccccn3)nnc(C)c2-c2ccccc2)c1` [Compound 13, 4-(3,5-dimethoxyphenyl)-6-methyl-5-phenyl-3-(2-pyridinyl)pyridazine], the pest or weed control at 200 ppm turned out to be 0% in the assay with Septoria tritici (setting [2]); 0% in the assay on Botrytis cinerea (Botrytis cinerea, 200 ppm); 41% in assay [1] (192 h, 200 ppm); 0% in the assay on Alternaria solani (Alternaria solani, 200 ppm); 0% with Septoria nodorum (setting [3]); 0% in the assay on Erysiphe graminis (setting [4]).

As for `COc1cc(OC)cc(-c2c(-c3ccccc3F)nnc(C)c2-c2ccc(F)cc2F)c1` [Compound 15, 4-(2,4-difluorophenyl)-5-(3,5-dimethoxyphenyl)-6-(2-fluorophenyl)-3-methylpyridazine], the pest or weed control at 200 ppm in the assay on Septoria tritici (setting [2]) stood at 99%; in the assay on Botrytis cinerea (Botrytis cinerea, 200 ppm), 98%; in assay [1] (192 h, 200 ppm), 100%; in the assay with Alternaria solani (Alternaria solani, 200 ppm) it was 100%; with Septoria nodorum (setting [3]), 98%; in the assay on Erysiphe graminis (setting [4]), 100%.

Turning to `C=C(C)c1nnc(C)c(-c2c(F)cccc2F)c1-c1cc(OC)cc(OC)c1` [Compound 21], the “Test C rating” value with Septoria tritici (40 ppm (marked *)) is listed as 98* %. For the same compound, the “Test F rating” value in the assay with Botrytis cinerea (40 ppm (marked *)) is 98* %. The “Test B rating” value in assay [1] (40 ppm (marked *)) is given as 99* %. The “Test E rating” value in the assay on Alternaria solani (40 ppm (marked *)) was 98* %. Further, the “Test D rating” value in the assay with Septoria nodorum (40 ppm (marked *)) is 0* %. Further, the “Test A rating” value in the assay on Erysiphe graminis (40 ppm (marked *)) was 94* %.

Regarding `COc1cc(OC)cc(-c2c(-c3ccccc3)n[n+]([O-])c(C)c2-c2ccc(F)cc2)c1` [Compound 12, 4-(3,5-dimethoxyphenyl)-5-(4-fluorophenyl)-6-methyl-3-phenylpyridazine 1-oxide], the pest or weed control at 200 ppm came to 99% with Septoria tritici (setting [2]); 100% in the assay on Botrytis cinerea (Botrytis cinerea, 200 ppm); 100% in assay [1] (192 h, 200 ppm); 94% with Alternaria solani (Alternaria solani, 200 ppm); 0% in the assay on Septoria nodorum (setting [3]); 62% in the assay on Erysiphe graminis (setting [4]).

For the compound `COc1cc(OC)cc(-c2c(-c3ccccc3F)nnc(Cl)c2-c2ccc(F)cc2F)c1` [Compound 18, 3-chloro-4-(2,4-difluorophenyl)-5-(3,5-dimethoxyphenyl)-6-(2-fluorophenyl)pyridazine], the pest or weed control at 200 ppm in the assay on Septoria tritici (setting [2]) amounted to 98%; with Botrytis cinerea (Botrytis cinerea, 200 ppm), 95%; in assay [1] (192 h, 200 ppm), 100%; in the assay on Alternaria solani (Alternaria solani, 200 ppm) it was 100%; in the assay with Septoria nodorum (setting [3]), 100%; with Erysiphe graminis (setting [4]), 95%.

As for `COc1cc(OC)cc(-c2c(-c3cc(F)c(F)cc3F)cnnc2-c2ccccc2F)c1` [Compound 27, 4-(3,5-dimethoxyphenyl)-3-(2-fluorophenyl)-5-(2,4,5-trifluorophenyl)pyridazine], the pest or weed control at 200 ppm was 99% with Septoria tritici (setting [2]); 100% in the assay with Botrytis cinerea (Botrytis cinerea, 200 ppm); 100% in assay [1] (192 h, 200 ppm); 99% with Alternaria solani (Alternaria solani, 200 ppm); 84% in the assay on Septoria nodorum (setting [3]); 89% in the assay on Erysiphe graminis (setting [4]).

Regarding `Cc1nnc(-c2ccccc2F)c(-c2ccc(Cl)cc2)c1-c1c(F)cc(F)cc1F` [Compound 23], in the assay with Septoria tritici (200 ppm), the “Test C rating” value was 97%. Further, the “Test F rating” value in the assay on Botrytis cinerea (200 ppm) is 86%. In addition, in assay [1] (200 ppm), the “Test B rating” value is listed as 99%. Moreover, the “Test E rating” value in the assay with Alternaria solani (200 ppm) is on record as 96%. The “Test D rating” value in the assay with Septoria nodorum (200 ppm) stood at 0%. In the assay with Erysiphe graminis (200 ppm), the “Test A rating” value was determined as 99%.

In the case of `COc1cc(OC)cc(-c2c(-c3ccc(F)cc3)nnc(C)c2-c2ccccc2)c1` [Compound 11], the “Test C rating” value in the assay with Septoria tritici (200 ppm) amounted to 70%. Moreover, the “Test F rating” value in the assay on Botrytis cinerea (200 ppm) was found to be 0%. For the same compound, the “Test B rating” value in assay [1] (200 ppm) is reported as 68%. For the same compound, the “Test E rating” value in the assay with Alternaria solani (200 ppm) is on record as 0%. The “Test D rating” value in the assay with Septoria nodorum (200 ppm) was found to be 0%. Further, the “Test A rating” value in the assay on Erysiphe graminis (200 ppm) is 93%.
